From patent US20230265116A1, “DEGRADATION OF (EGFR) BY CONJUGATION OF EGFR INHIBITORS WITH E3 LIGASE LIGAND AND METHODS OF USE” (BEIGENE, LTD., priority 2020, published 2023)

Experiments:
[1] = tested on: EGFR Del19/T790M/C797S (BaF3-DTC cells); test: EGFR degradation HTRF assay, BaF3-DTC cells; type: cell-based; details: 16h treatment; for DTC Dmax (%): maximum percentage of degradation; for DC50: read-out: DTC DC50
Outline: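 EGFR remaining after a 16 h, 37 °C exposure (8 doses, 5-fold steps from 10 uM final, 0.2% DMSO) was quantified by HTRF antibodies in cell lysate. Percent inhibition relative to DMSO control was fitted by four-parameter logistic to give DC50; Dmax denotes maximal degradation.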

[2] = molecular target: T1, EGFR L858R/T790M/C797S (BaF3-LTC cells) (Homo sapiens, UniProt P00533, C797S/L858R/T790M); test: EGFR degradation HTRF assay, BaF3-LTC cells; type: cell-based; details: BaF3-LTC, 16h treatment; for Dmax: maximum percentage of degradation, read-out: LTC Dmax (%); for DC50: read-out: LTC DC50
T1 construct: expressed in transfected cells; host or cells: BaF3
Outline: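 Cells treated 16 h at 37 °C, 5% CO2 in medium with 0.2% DMSO; top final concentration 10 uM, 5-fold dilution, 8 doses. Lysates read by HTRF (665/620 nm); degradation % versus DMSO high control, DC50 from four-parameter fit, Dmax as maximal degradation.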

T1 sequence (P00533 25-1210 T790M/C797S/L858R): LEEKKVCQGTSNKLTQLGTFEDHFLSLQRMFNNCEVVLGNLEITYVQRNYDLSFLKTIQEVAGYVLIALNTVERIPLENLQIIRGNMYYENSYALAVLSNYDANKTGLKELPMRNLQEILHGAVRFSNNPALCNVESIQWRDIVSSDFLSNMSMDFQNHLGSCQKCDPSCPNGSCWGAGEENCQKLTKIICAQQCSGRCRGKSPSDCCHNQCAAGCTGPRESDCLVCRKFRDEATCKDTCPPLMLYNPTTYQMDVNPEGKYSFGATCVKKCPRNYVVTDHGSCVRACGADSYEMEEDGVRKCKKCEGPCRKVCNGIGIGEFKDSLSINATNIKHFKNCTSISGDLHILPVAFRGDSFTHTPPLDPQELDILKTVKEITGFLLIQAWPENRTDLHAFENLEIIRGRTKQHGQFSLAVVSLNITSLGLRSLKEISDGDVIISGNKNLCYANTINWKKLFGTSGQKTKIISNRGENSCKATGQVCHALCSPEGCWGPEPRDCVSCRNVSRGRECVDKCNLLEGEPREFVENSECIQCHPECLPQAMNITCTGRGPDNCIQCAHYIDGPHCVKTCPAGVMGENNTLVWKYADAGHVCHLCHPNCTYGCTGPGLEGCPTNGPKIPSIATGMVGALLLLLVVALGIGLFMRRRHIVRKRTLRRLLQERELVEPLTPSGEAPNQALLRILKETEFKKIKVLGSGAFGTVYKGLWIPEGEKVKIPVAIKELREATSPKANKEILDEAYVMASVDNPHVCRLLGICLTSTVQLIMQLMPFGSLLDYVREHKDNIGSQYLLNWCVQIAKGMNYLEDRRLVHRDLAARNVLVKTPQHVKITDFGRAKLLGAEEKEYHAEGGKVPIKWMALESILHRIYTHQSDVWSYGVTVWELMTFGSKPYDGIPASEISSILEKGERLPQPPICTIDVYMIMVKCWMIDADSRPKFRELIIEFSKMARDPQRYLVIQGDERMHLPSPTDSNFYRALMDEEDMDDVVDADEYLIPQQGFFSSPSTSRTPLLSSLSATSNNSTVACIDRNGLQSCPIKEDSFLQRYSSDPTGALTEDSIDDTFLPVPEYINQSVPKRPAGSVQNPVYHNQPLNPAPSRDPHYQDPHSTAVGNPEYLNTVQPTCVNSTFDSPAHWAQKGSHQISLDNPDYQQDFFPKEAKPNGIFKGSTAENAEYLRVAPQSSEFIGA

Structure (SMILES)	DTC Dmax (%) [1] [%]	DC50 [1] [nM]	Dmax [2] [%]	DC50 [2] [nM]
CCc1cc(Nc2ncc(Br)c(Nc3ccc4nc(C)ccc4c3P(C)(C)=O)n2)c(OC)cc1N1CCC(N2CCN(CCC3CCN(c4cc(F)c(C5CCC(=O)NC5=O)c(F)c4)CC3)CC2)CC1 (stereo not drawn) [Example 312, 3-(4-(4-(2-(4-(1-(4-((5-bromo-4-((5-(dimethylphosphoryl)-2-methylquinolin-6-yl)amino)pyrimidin-2-yl)amino)-2-ethyl-5-methoxyphenyl)piperidin-4-yl)piperazin-1-yl)ethyl)piperidin-1-yl)-2,6-difluorophenyl)piperidine-2,6-dione]	88.59	8.17	86.1	16.1
CCc1cc(Nc2ncc(Br)c(Nc3ccc4nc(C(C)C)ccc4c3P(C)(C)=O)n2)c(OC)cc1N1CCC(N2CCN(CCC3CCN(c4cc(F)c(C5CCC(=O)NC5=O)c(F)c4)CC3)CC2)CC1 (stereo not drawn) [Example 313, 3-(4-(4-(2-(4-(1-(4-((5-bromo-4-((5-(dimethylphosphoryl)-2-isopropylquinolin-6-yl)amino)pyrimidin-2-yl)amino)-2-ethyl-5-methoxyphenyl)piperidin-4-yl)piperazin-1-yl)ethyl)piperidin-1-yl)-2,6-difluorophenyl)piperidine-2,6-dione]	90.8	28.6	87.5	53.7
CCc1cc(Nc2ncc(Br)c(Nc3ccc4nc(C)ccc4c3P(C)(C)=O)n2)c(OC)cc1N1CCC(N2CCN(CCc3cc(F)c(C4CCC(=O)NC4=O)c(F)c3)CC2)CC1 (stereo not drawn) [Example 314, 3-(4-(2-(4-(1-(4-((5-bromo-4-((5-(dimethylphosphoryl)-2-methylquinolin-6-yl)amino)pyrimidin-2-yl)amino)-2-ethyl-5-methoxyphenyl)piperidin-4-yl)piperazin-1-yl)ethyl)-2,6-difluorophenyl)piperidine-2,6-dione]	91.87	2.48	87.8	6.5
CCc1cc(Nc2ncc(Br)c(Nc3ccc4nccnc4c3P(C)(C)=O)n2)c(OC)cc1N1CCC(N2CCN(C(=O)C3CN(c4ccc5nn(C6CCC(=O)NC6=O)cc5c4)C3)CC2)CC1 (stereo not drawn) [Example 315, 3-(5-(3-(4-(1-(4-((5-bromo-4-((5-(dimethylphosphoryl)quinoxalin-6-yl)amino)pyrimidin-2-yl)amino)-2-ethyl-5-methoxyphenyl)piperidin-4-yl)piperazine-1-carbonyl)azetidin-1-yl)-2H-indazol-2-yl)piperidine-2,6-dione]	89.47	4.27	82	12.9
CCc1cc(Nc2ncc(Br)c(Nc3ccc4nc(C(C)C)ccc4c3P(C)(C)=O)n2)c(OC)cc1N1CCC(N2CCN(CCc3cc(F)c(C4CCC(=O)NC4=O)c(F)c3)CC2)CC1 (stereo not drawn) [Example 316, 3-(4-(2-(4-(1-(4-((5-bromo-4-((5-(dimethylphosphoryl)-2-isopropylquinolin-6-yl)amino)pyrimidin-2-yl)amino)-2-ethyl-5-methoxyphenyl)piperidin-4-yl)piperazin-1-yl)ethyl)-2,6-difluorophenyl)piperidine-2,6-dione]	89.57	9.59	79	48.7
CCc1cc(Nc2ncc(Br)c(Nc3ccc4nc(CO)ccc4c3P(C)(C)=O)n2)c(OC)cc1N1CCC(N2CCN(CCc3cc(F)c(C4CCC(=O)NC4=O)c(F)c3)CC2)CC1 (stereo not drawn) [Example 329, 3-(4-(2-(4-(1-(4-((5-bromo-4-((5-(dimethylphosphoryl)-2-(hydroxymethyl)quinolin-6-yl)amino)pyrimidin-2-yl)amino)-2-ethyl-5-methoxyphenyl)piperidin-4-yl)piperazin-1-yl)ethyl)-2,6-difluorophenyl)piperidine-2,6-dione]	96.43	1.72	92.4	2.9
CCc1cc(Nc2ncc(Br)c(Nc3ccc4ncc(F)cc4c3P(C)(C)=O)n2)c(OC)cc1N1CCC(N2CCN(CCc3cc(F)c(C4CCC(=O)NC4=O)c(F)c3)CC2)CC1 (stereo not drawn) [Example 336, 3-(4-(2-(4-(1-(4-((5-bromo-4-((5-(dimethylphosphoryl)-3-fluoroquinolin-6-yl)amino)pyrimidin-2-yl)amino)-2-ethyl-5-methoxyphenyl)piperidin-4-yl)piperazin-1-yl)ethyl)-2,6-difluorophenyl)piperidine-2,6-dione]	94.98	0.984	88.5	9.91
CCc1cc(Nc2ncc(Br)c(Nc3ccc4nc(C)ccc4c3P(C)(C)=O)n2)c(OC)cc1N1CCC(N2CCN(C(=O)C3CN(c4ccc5c(c4)C(C)(C)C(=O)N5C4CCC(=O)NC4=O)C3)CC2)CC1 (stereo not drawn) [Example 409, 3-(5-(3-(4-(1-(4-((5-bromo-4-((5-(dimethylphosphoryl)-2-methylquinolin-6-yl)amino)pyrimidin-2-yl)amino)-2-ethyl-5-methoxyphenyl)piperidin-4-yl)piperazine-1-carbonyl)azetidin-1-yl)-3,3-dimethyl-2-oxoindolin-1-yl)piperidine-2,6-dione]	95.3	1.23	96.1	1.46
CCc1cc(Nc2ncc(Br)c(Nc3ccc4nc(C)ccc4c3P(C)(C)=O)n2)c(OC)cc1N1CCC(N2CCN(CCc3ccc4c(c3)N(C3CCC(=O)NC3=O)C(=O)C4(C)C)CC2)CC1 (stereo not drawn) [Example 413, 3-(6-(2-(4-(1-(4-((5-bromo-4-((5-(dimethylphosphoryl)-2-methylquinolin-6-yl)amino)pyrimidin-2-yl)amino)-2-ethyl-5-methoxyphenyl)piperidin-4-yl)piperazin-1-yl)ethyl)-3,3-dimethyl-2-oxoindolin-1-yl)piperidine-2,6-dione]	95.66	1.91	93.2	6.11
CCc1cc(Nc2ncc(Br)c(Nc3ccc4nc(C5CC5)ccc4c3P(C)(C)=O)n2)c(OC)cc1N1CCC(N2CCN(CC3CN(c4ccc5c(c4)CN(C4CCC(=O)NC4=O)C5=O)C3)CC2)CC1 (stereo not drawn) [Example 426, 3-(5-(3-((4-(1-(4-((5-bromo-4-((2-cyclopropyl-5-(dimethylphosphoryl)quinolin-6-yl)amino)pyrimidin-2-yl)amino)-2-ethyl-5-methoxyphenyl)piperidin-4-yl)piperazin-1-yl)methyl)azetidin-1-yl)-1-oxoisoindolin-2-yl)piperidine-2,6-dione]	91.88	4.34	89	6.67
CCc1cc(Nc2ncc(Br)c(Nc3ccc4nc(C5CC5)ccc4c3P(C)(C)=O)n2)c(OC)cc1N1CCC(N2CCN(CCc3cc(F)c(C4CCC(=O)NC4=O)c(F)c3)CC2)CC1 (stereo not drawn) [Example 427, 3-(4-(2-(4-(1-(4-((5-bromo-4-((2-cyclopropyl-5-(dimethylphosphoryl)quinolin-6-yl)amino)pyrimidin-2-yl)amino)-2-ethyl-5-methoxyphenyl)piperidin-4-yl)piperazin-1-yl)ethyl)-2,6-difluorophenyl)piperidine-2,6-dione]	93.94	7.1	88.3	8.61
CCc1cc(Nc2ncc(Br)c(Nc3ccc4ncn(C)c(=O)c4c3P(C)(C)=O)n2)c(OC)cc1N1CCC(N2CCN(CCc3cc(F)c(C4CCC(=O)NC4=O)c(F)c3)CC2)CC1 (stereo not drawn) [Example 428, 3-(4-(2-(4-(1-(4-((5-bromo-4-((5-(dimethylphosphoryl)-3-methyl-4-oxo-3,4-dihydroquinazolin-6-yl)amino)pyrimidin-2-yl)amino)-2-ethyl-5-methoxyphenyl)piperidin-4-yl)piperazin-1-yl)ethyl)-2,6-difluorophenyl)piperidine-2,6-dione]	95.35	1.13	93.5	3.67
CCc1cc(Nc2ncc(Br)c(Nc3ccc4c(=O)n(C)ccc4c3P(C)(C)=O)n2)c(OC)cc1N1CCC(N2CCN(CCc3cc(F)c(C4CCC(=O)NC4=O)c(F)c3)CC2)CC1 (stereo not drawn) [Example 429, 3-(4-(2-(4-(1-(4-((5-bromo-4-((5-(dimethylphosphoryl)-2-methyl-1-oxo-1,2-dihydroisoquinolin-6-yl)amino)pyrimidin-2-yl)amino)-2-ethyl-5-methoxyphenyl)piperidin-4-yl)piperazin-1-yl)ethyl)-2,6-difluorophenyl)piperidine-2,6-dione]	94.9	2.33	91.3	5.15
COc1cc(N2CCC(N3CCN(CCc4cc(F)c(C5CCC(=O)NC5=O)c(F)c4)CC3)CC2)c(C(C)O)cc1Nc1ncc(Br)c(Nc2ccc3nccnc3c2P(C)(C)=O)n1 (stereo not drawn) [Example 430, 3-(4-(2-(4-(1-(4-((5-bromo-4-((5-(dimethylphosphoryl)quinoxalin-6-yl)amino)pyrimidin-2-yl)amino)-2-(1-hydroxyethyl)-5-methoxyphenyl)piperidin-4-yl)piperazin-1-yl)ethyl)-2,6-difluorophenyl)piperidine-2,6-dione]	97.63	2.64	94.5	4.5
CCc1cc(Nc2ncc(Br)c(Nc3ccc4c(=O)n(C)ncc4c3P(C)(C)=O)n2)c(OC)cc1N1CCC(N2CCN(CCc3cc(F)c(C4CCC(=O)NC4=O)c(F)c3)CC2)CC1 (stereo not drawn) [Example 431, 3-(4-(2-(4-(1-(4-((5-bromo-4-((5-(dimethylphosphoryl)-2-methyl-1-oxo-1,2-dihydrophthalazin-6-yl)amino)pyrimidin-2-yl)amino)-2-ethyl-5-methoxyphenyl)piperidin-4-yl)piperazin-1-yl)ethyl)-2,6-difluorophenyl)piperidine-2,6-dione]	97.96	2.7	91	12.4
